Values after ≈ are worked out from the molar mass of the structure shown.
Experiments:
[1] = test system: HT-29; experiment: Cytotoxicity against human HT-29 cells after 72 hrs by Alamar blue assay; type: functional, cell-based; conditions: HT-29, 72 h
[2] = test system: Plasmodium falciparum; experiment: Antiplasmodial activity against chloroquine-sensitive Plasmodium falciparum NF54 infected human erythrocytes as [3H]hypoxanthine uptake; type: functional, organism-based
[3] = test system: Plasmodium falciparum; experiment: Antiplasmodial activity against chloroquine-resistant Plasmodium falciparum K1 infected human erythrocytes as [3H]hypoxanthine uptake; type: functional, organism-based
[4] = test system: Mus musculus; experiment: Toxicity against Plasmodium berghei-infected mice (Mus musculus) assessed as mortality at 10 mg/kg, subcutaneously after 1 day; type: organism-based; parameters: dose 10 mg/kg, route subcutaneous; conditions: in vivo, sc, 24 h

SMILES | IC50 [1] [µg/mL] | IC50 [2] [µg/mL] | IC50 [3] [µg/mL] | Activity [4]
CC1=C(O)C(=O)C=C2C1=CC=C1[C@@]2(C)CC[C@@]2(C)[C@@H]3C[C@](C)(C(=O)O)CC[C@]3(C)CC[C@]12C [CELASTROL] | 1.3 (≈ 2.88 µM) | 0.254 (≈ 0.564 µM) | 0.181 (≈ 0.401 µM) | 
COC(=O)[C@]1(C)CC[C@]2(C)CC[C@]3(C)C4=CC=C5C(=CC(=O)C(O)=C5C)[C@]4(C)CC[C@@]3(C)[C@@H]2C1 [PRISTIMERIN] | 4.6 (≈ 9.9 µM) | 0.271 (≈ 0.583 µM) | 0.19 (≈ 0.41 µM) | 
CC1=C(O)C(=O)C=C2C1=CC=C1[C@@]2(C)CC[C@@]2(C)[C@@H]3C[C@H](CO)CC[C@]3(C)CC[C@]12C [ISOIGUESTEROL] | 2.43 (≈ 5.75 µM) | 0.0541 (≈ 0.128 µM) | 0.0229 (≈ 0.0542 µM) | 
C=C1CC[C@]2(C(=O)OC)CC[C@]3(C)C4=CC=C5C(=CC(=O)C(O)=C5C)[C@]4(C)CC[C@@]3(C)[C@@H]2C1 | 2.38 (≈ 5.31 µM) | 0.0371 (≈ 0.0827 µM) | 0.0276 (≈ 0.0615 µM) | Toxic
C=C1CC[C@]2(CO)CC[C@]3(C)C4=CC=C5C(=CC(=O)C(O)=C5C)[C@]4(C)CC[C@@]3(C)[C@@H]2C1 | 6.06 (≈ 14.4 µM) | 0.14 (≈ 0.333 µM) | 0.114 (≈ 0.272 µM) | 
CCN(CC)CCCC(C)Nc1ccnc2cc(Cl)ccc12 (centres undefined) [CHLOROQUINE] | 58 (≈ 181 µM) |  |  | 
C=C1CC[C@]2(C=O)CC[C@]3(C)C4=CC=C5C(=CC(=O)C(O)=C5C)[C@]4(C)CC[C@@]3(C)[C@@H]2C1 |  | 0.0799 (≈ 0.191 µM) | 0.094 (≈ 0.225 µM) | 
